The conditions of data set [1]: ref [26], cited from earlier work. The source says: Fig. 3 Concave face interactions in SLRP crystal structures. For each structure, two orthogonal views are shown. […] The experimentally determined mass of fibromodulin was 56.7 kDa (calculated: 41.5 kDa + 4 N-linked glycans) and that of chondroadherin was 39.6 kDa (calculated: 38.6 kDa). In comparison, using the same SEC-MALS setup, we previously determined an experimental mass of 83.5 kDa for the glycosylated decorin core protein (calculated: 36.2 kDa + 4 N-linked glycans).

The target of data set [2] is decorin dimer. Particulars: ref [26]; read-out: dissociation constant of decorin dimer; cited from earlier work. The text has this: We used size exclusion chromatography with multi-angle light scattering (SEC-MALS) to determine the oligomeric states of fibromodulin and chondroadherin in solution (Fig. 4). The experimentally determined mass of fibromodulin was 56.7 kDa (calculated: 41.5 kDa + 4 N-linked glycans) and that of chondroadherin was 39.6 kDa (calculated: 38.6 kDa). In comparison, using the same SEC-MALS setup, we previously determined an experimental mass of 83.5 kDa for the glycosylated decorin core protein (calculated: 36.2 kDa + 4 N-linked glycans).

In data set [3] the target is T1, chondroadherin (Homo sapiens, UniProt O15335).
T1 construct: The construct comprises residues 23–359 of Uniprot O15335 and is untagged; made in house; host or cells: HEK293 c18 cells
T1 sequence (O15335 23-359): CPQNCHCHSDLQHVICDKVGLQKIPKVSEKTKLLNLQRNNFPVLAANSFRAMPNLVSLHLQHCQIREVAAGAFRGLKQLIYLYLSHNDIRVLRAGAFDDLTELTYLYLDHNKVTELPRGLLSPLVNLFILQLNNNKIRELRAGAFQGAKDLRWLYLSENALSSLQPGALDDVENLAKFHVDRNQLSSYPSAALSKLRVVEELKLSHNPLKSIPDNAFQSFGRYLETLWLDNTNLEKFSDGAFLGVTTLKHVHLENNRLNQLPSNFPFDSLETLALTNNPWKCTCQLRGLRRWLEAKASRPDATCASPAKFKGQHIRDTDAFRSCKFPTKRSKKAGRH
The experiment in a line: Binding of peptide AB31 to chondroadherin in solution by size exclusion chromatography. As to the method: The natural affinity of chondroadherin for Ni^2 + affinity resin was used to purify the untagged protein. The filtered serum-free cell culture supernatant was adjusted to a final concentration of 20 mM Na-HEPES (pH 7.5) and loaded onto a 5-ml HisTrap Excel column using an Äkta Purifier. Elution was performed with an imidazole gradient in buffer A. The chondroadherin protein was further purified by size exclusion chromatography as described for fibromodulin. Chondroadherin and the collagen-like peptide AB31 were mixed in a 1:2 molar ratio and incubated for 15 min at room temperature. The chondroadherin-AB31 complex was purified by size exclusion chromatography in buffer A.

Consider decorin, for which, in data set [1] (not SEC-MALS of this work, [32], [33]), the “oligomeric state in solution (literature)” value is given as “form stable dimers in solution”. In data set [1] (same SEC-MALS setup, previously determined), the “experimental mass of glycosylated decorin core protein” value was 83.5 kDa. The Kd in data set [2] was 1.4 µM.
On to GAOGPSGFQGLOGPOGPO, for which, in data set [3] (SEC, Superdex 75, AB31:chondroadherin 2:1 molar ratio, 15 min, room temperature, buffer A (20 mM HEPES pH 7.5, 150 mM NaCl, 2 mM CaCl2)), the “complex formation with chondroadherin in solution” value is reported as “forms a stable complex with chondroadherin in solution”. Besides, the “binding site quality of shared sequence” value in data set [3] (sequence shared by II-26 and AB31) is on record as “high-affinity binding site for chondroadherin”.
